Data: a melting point compilation (Tetko et al.; mined from patent text by program, amines drawn as free bases though some values may be those of a salt)

Compound | melting point
CCCN(CCC)C1CCC2=C(CCCC2=NO)C1 (stereo not given) | 99 to 102 °C
CN1C(=O)CC(c2ccc(O)cc2)C1C(O)c1ccc(-c2ccccc2)s1 (stereo not given) | 248 to 249 °C
CCCCN(CCCC)C(=O)c1cc2ccccc2c(-c2ccccc2)n1 | 62 °C
CCCCCCCCC(SCCCCCC)C(=O)Nc1c(OC)ccc2ncccc12 (stereo not given) | 88 to 89 °C
CN1C(=O)N(c2ccc(C#N)c(C(F)(F)F)c2)C(=O)C1(CF)CF | 137 to 138 °C
CS(=O)(=O)c1ccc(-c2cc(F)c(F)cc2-c2ccc(F)c(Cl)c2)cc1 | 172 °C
Oc1nc2ccc3ncsc3c2nc1O | > 360 °C
CCOC(=O)c1cn(-c2nsnc2C)c2nc(Cl)c(F)cc2c1=O | 192 °C
CC1CN2C(=NC1=O)CCC2C (stereo not given) | 150 to 152 °C
COc1cc([N+](=O)[O-])c2ncc(C)cc2c1 | 173 to 175 °C
CCCc1nn(C)c2c(=O)n(CCCc3ccc(OC(C)(C)C(=O)O)cc3)c(C)nc12 | 104 to 106 °C
COCOc1ccc(OC)c(F)c1C(=O)c1ccc(C(=O)N[C@@H]2CCCN(C(=O)OC(C)(C)C)C[C@H]2NC(=O)c2ccncc2)cc1 | 106 °C
Cc1ccc(C2c3c(C)c(N4CCN(c5ccc(C#N)cc5)CC4)c(C)c(C)c3OC2(C)C)cc1 (stereo not given) | 216 to 217 °C
COc1ccc(N)cc1C(=O)O | 163 to 166 °C
CC1(C)Oc2ccc([N+](=O)[O-])cc2C(n2ccccc2=O)C1(O)CNC(=O)C(F)(F)F (stereo not given) | 158 °C
COC(=O)c1cc(C(=O)CBr)c(OC(C)=O)cc1NC(=O)C(F)(F)F | 260 to 261 °C
CCC(C(=O)O)N(C(=O)c1cn(-c2cc(C(F)(F)F)ccc2Cl)nc1C)c1ccc(OCC(C)(C)C)c(C#N)c1 (stereo not given) | 134 to 135 °C
COCCOCOCc1c(OC)ccc2c1Oc1c(ccc(OC)c1CO)N2C | 68 to 70 °C
O=C(NCc1ccc(Cl)cc1)c1cc(Cl)c2cccnc2c1O | 163 to 166 °C
CCOC(=O)COc1ccc(-c2cc(O)c(SCCc3ccccc3)c(=O)o2)cc1 | 169 to 171 °C
COC(=O)CCc1ccc(CNC(=O)[C@@H](CCCNC(N)=N[N+](=O)[O-])NC(=O)C(c2ccccc2)c2ccccc2)cc1 | 159 to 161 °C
COc1ccccc1Oc1c(NS(=O)(=O)c2ccc(C)cn2)nc(-c2ccncc2)nc1OC | 225 to 226 °C
Cc1nn(C)c2nc3ccccc3c(NCc3ccccc3)c12 | 105 °C
NCC(=O)NC(Cc1cccnc1)c1ccccc1 (stereo not given) | 93.5 to 94.5 °C
Clc1cc2c(c(-c3nc4ncccc4o3)c1)CCCC2 | 130 to 132 °C

Compound | melting point
COc1ccc(Cl)cc1Nc1c(C#N)cnc2cc(OC)c(OC)cc12 | 200 to 202 °C
Cc1ccc(Cn2c(=O)cc(C(C)C(=O)Oc3ccccc3)c3cc(C)ccc32)cc1 (stereo not given) | 111 to 113 °C
Cc1ncc(CO)c(NCc2ccc(-c3ccccc3-c3nnnn3C(c3ccccc3)(c3ccccc3)c3ccccc3)cc2)n1 | 112 to 114 °C
CCOC(=O)C(NC(C)=O)(C(=O)OCC)C1=Nc2ccc(Cl)cc2C(c2ccccc2Cl)=NC1 | 153 to 155 °C
Nc1ccc(N2CCCC2)c(S(=O)(=O)O)c1 | 255 to 256 °C
CC(=Cc1ccccc1)c1ccc2c(c1)C(C)(C)CCO2 | 64 to 65 °C
CCN(CC)C[C@@H]1CCCN1CC(=O)N1c2ccccc2C(=O)Nc2cccnc21 | 192 to 193 °C
CN1CCN(N=C2CC(c3ccc(C(F)(F)F)cc3)Cc3c2c(=O)c2cc(Cl)ccc2n3O)CC1 (stereo not given) | 213 °C
O=S(=O)(Oc1ccc2ccc(OS(=O)(=O)C(F)(F)F)cc2c1)C(F)(F)F | 60 to 62 °C
CCC1(CC)Cc2cc(OCC(=O)O)c(Cl)c(Cl)c2C1=O | 111 °C
CCC(C)C(NC(=O)OC)C(=O)NN(Cc1ccc(-c2nccs2)cc1)CC(O)C(Cc1ccccc1)NC(=O)C(NC(=O)OC)C(C)C (stereo not given) | 227 to 229 °C
CC(=O)Nc1c(C(=O)c2cccs2)[nH]c2cc(Cl)ccc12 | 228 to 231 °C
OCCC1(c2ccccc2)CCNCC1 | 120 °C
N=C(NO)c1ccc(-c2cnc(-c3ccc(C(=N)NO)cc3)nc2)cc1 | 290 to 292 °C
Cc1n[nH]c2c1CCc1[nH]ncc1-2 | 250 to 252 °C
CC(C)C(=O)OC1(C(=O)CO)CCC2C3CC(C)C4=CC(=O)CCC4(C)C3C(O)CC21C (stereo not given) | 191 °C
c1cc(-c2cccc3ncoc23)c2ocnc2c1 | 226 to 228 °C
CCn1cc2c(n1)c(Cl)nc1cc(OCc3ccccc3)ccc12 | 155 to 157 °C
CC(O)CCCCc1ccc(S(N)(=O)=O)s1 (stereo not given) | 75 to 76 °C
CC(C)S(=O)(=O)n1c(N)nc2ccc(C(=CCl)c3ccccc3)cc21 | 180 to 181 °C
C=CCN1C(=O)NC(=C(C(=O)OCC)C(=O)OCC)C1=O | 91 to 92 °C
OCC(O)(CO)c1ccc(F)cc1F | 58 to 59 °C
COc1ccc(CS[C@@H]2C[C@@H](CN=[N+]=[N-])N(S(=O)(=O)c3ccc4ccccc4c3)C2)cc1 | 143 °C
Cc1ccc(S(=O)(=O)N2[C@@H](Cc3nc(C4CC4)no3)CC[C@H]2c2ccc(F)cc2)cc1 (racemic) | 102 °C
CCCCCN1C(=O)C(CCC(=O)O)(NC(=O)c2cc3ccccc3n2CCC#N)c2ccccc21 (stereo not given) | 125 °C
